Assay results reported in patent US20250144054A1, “SMALL MOLECULE STAT3 INHIBITOR FOR TREATING TRIPLE NEGATIVE BREAST CANCER” (UNIVERSITY OF MARYLAND, BALTIMORE, priority 2022, published 2025).
Several values for one entry are separate records, joined by “and”; a condition that tells them apart may be missing. Equal values may be shown once.

Tested on: STAT3
Experiment: Western blot of P-STAT3 (Y705), STAT3, Cyclin D1, Cleaved Caspase-3 in MDA-MB-231 cells
Assay type: cell-based, human
Conditions: MDA-MB-231, overnight
Protocol: (A) MDA-MB-231, SUM159, and 4T1 cell lines were treated with DMSO or LLL12B overnight and the expression levels of P-STAT3 (Y705), STAT3, Cyclin D1, and Cleaved Caspase-3 were analyzed by Western blot. GAPDH served as a protein loading control. (B) MDA-MB-231 cells were treated with DMSO or C188-9 overnight and the expression levels of P-STAT3 (Y705), STAT3, Cyclin D1, and Cleaved Caspase-3 were analyzed by Western blot. (C) MDA-MB-231, SUM159, and 4T1 cells were seeded in a 96-well plate and treated with DMSO or LLL12B for 5 hours and a Caspase-3/7 Fluorescence Assay Kit was used to detect the activation of caspase-3/7. (D) MDA-MB-231, SUM159, and 4T1 cell lines were treated with DMSO or LLL12B for 8-12 hours, and flow cytometry was performed to analyze annexin V and PI staining. The quantification of apoptotic cells was shown in the right panel. ** P<0.01, *** P<0.001 and ****P<0.0001.
SiRNA and transfection. STAT3 siRNA and Negative Control siRNA (Cell Signaling Technology, Danvers, MA, USA) were used to knock down STAT3 in MDA-MB-231, SUM159, and 4T1 cell lines. Cells were transfected with STAT3 siRNA or Negative Control siRNA using Lipofectamine RNAiMAX (Invitrogen, Carlsbad, CA, USA) according to the manufacturer's instructions. After 72 hours, cell viability was examined by MTT cell viability assay, and the transfection efficiency was examined by western blot.
Western blot. Cells were collected and total protein was extracted using cell lysis buffer (Cell Signaling Technology, Danvers, MA, USA). Protein concentration was determined using the Pierce BCA Protein Assay Kit (Thermo Fisher Scientific, Waltham, MA, USA) according to the manufacturer's instructions. Equal amounts of protein were separated by 10% SDS-PAGE gels and transferred to PVDF membranes. Membranes were blocked in 5% non-fat milk at room temperature and probed with specific antibodies P-STAT3 (Y705), STAT3, Cyclin D1, Cleaved Caspase-3, P-STAT1 (Y701), STAT1, P-ERK, ERK or GAPDH (1:1000, Cell Signaling Technology, Danvers, MA, USA) at 4° C. overnight. The blots were visualized using SuperSignal™ West Femto Maximum Sensitivity Substrate (Thermo Fisher Scientific, Waltham, MA, USA) and an Amersham Imager 680 (GE Healthcare Life Sciences, Marlborough, MA, USA) after incubating with horseradish peroxidase (HRP)-conjugated anti-rabbit secondary antibody (1:5000, Cell Signaling Technology, Danvers, MA, USA).

`COc1ccc(S(=O)(=O)Nc2cc(-c3c(O)ccc4ccccc34)c(O)c3ccccc23)cc1` [C188-9, reference compound] was tested, and the “concentration that inhibited P-STAT3 and Cyclin D1 in Western blot” value was 25 µM and 50 µM.
